Entries after “also recorded” stand apart in the source; their conditions may differ. Like-named read-outs stand apart in the source and are kept apart here.
Legend:
[1] = Metallic Cu suspension test with 1% Na ascorbate (Cu ion complex formation); type: physicochemical; conditions: 0.1% CuCl2, alone or with several percent of chelator; excess 1% Na ascorbate
[2] = test system: Boraras Micros fish; assay: Protection of Boraras Micros fish from CuCl2 by chelators; type: in vivo; conditions: 0.4 ppm CuCl2 + a few ppm to more than 10 ppm of chelator
[3] = test system: microorganisms that decompose organic matter (bacteria/fungi); assay: Culture of microorganisms that decompose organic matter; type: cell-based; conditions: for concentration in culture medium at which microorganisms multiply strongly: microorganisms that decompose organic matter (bacteria/fungi)
[4] = test system: Boraras Micros fish; conditions: for time to death of fish: 300 ppm EDTA disodium, 800 ppm EDTA Na; for death of fish: 1000 ppm Na2 EDTA / 0.5 ppm CuCl2 / [0.3 ppm CuCl2+20 ppm ZnCl2]; for toxicity / safety to host cells: in words, from fish experiments
[5] = type: physicochemical, animal/human blood; conditions: for volume that completely dissolves Zn-blood complex suspension: suspension from 1.4 ml 0.1% ZnCl2 in 100 ml 0.9% NaCl with 1% blood; for amount needed to completely dissolve Zn-blood complex suspension, compared with lysine phosphate/lysine chloride/arginine phosphate/arginine chloride: suspension with 2 ppm ZnCl2
[6] = test system: pathogenic microorganisms; assay: Inhibition/killing of pathogenic microorganisms in water with Boraras Micros fish infected from dead fish; type: in vivo
[7] = test system: avian influenza; design: species or system chicken; conditions: in vivo
[8] = test system: sweet taste on the tongue; assay: Loss and recovery of sweet taste after Zn gluconate; type: in vivo, human; conditions: for recovery of sweet taste: 5% arginine glutamate / 0.5% triethylenetetramine glutamate, 10 seconds
[9] = test system: symptoms such as sore throat/cough/headache; assay: Symptoms generated by ZnCl2 in the throat and their relief; type: in vivo, human; conditions: for disappearance of ZnCl2-induced symptoms: few ml of 10% solution, oral
[10] = Metallic Cu suspension test with 1% Na ascorbate (Cu ion complex formation); type: physicochemical; conditions: with 0.1% CuCl2; excess 1% Na ascorbate
Source text: In an environment containing water in the body of organisms/host bodies (host is animal/human) such as in blood/tissue fluid/alveolar fluid/intracellular fluid . . . ) in conditions where the body is depleted of chelators with [Zn ions/other transition metal ions]-holding (such as the amount of chelators with [Zn ions/other transition metal ions]-holding remains is not significant in the patient's body), Cu ions will attach to [Fe ions in metalloproteins of [host cells/red blood cells/alveolar cells], causing these cells to lose the ability to exchange O2, causing symptoms of acute respiratory failure (not due to lung infection), and this symptom is very dangerous because it can quickly lead to death. Among the bond forces between Cu ions and other metal ions, the bond force of the Cu ion-Fe ion complex is the strongest, can recognize the existence of Cu ion-ion Fe ion complex/Cu ion-Zn ion complex/Cu ion-Mg ion complex/Cu ion-Ca ion complex, and can recognize Cu ion-other metal ion bonds, in which the Cu ion-Fe ion bond is the bond type with the highest magnitude through experiments conducted in water environment (water environment without chelators with [Zn ions/other transition metal ions]-holding) is the environment that simulates the blood environment/alveolar fluid environment of a host with the depletion of these chelators), these experiments were performed by adding an excess amount of 1% Na ascorbate solution to the test tube containing the solution with [0.1 % CuCl2+greater than 0.2% FeCl3]/the test tube containing the solution containing [0.1 % CuCl2+greater than 0.6% ZnCl2]/the test tube containing the solution containing [0.1 % CuCl2+greater than 0.63% MgCl2]/the test tube containing the solution conatining [0 .

[11] = test system: mice; type: in vivo, mouse; conditions: fed rat poison pills, normal water (control)
[12] = Voltage of metallic Zn-metallic Cu electrode pair in test tube; type: physicochemical; conditions: 0.9% NaCl+0.2 ppm CuCl2+0.4 ppm ZnCl2+0.6 FeCl3
[13] = 10 ppm Ampicillin / 20 ppm Bactrim / 100 ppm triethylenetetramine diethylenetriaminepentaacetate / 300 Mg EDTA / 600 ppm Ca EDTA / combinations as in label
[14] = 20 ppm Ampicillin / 40 ppm Bactrim

In the case of NCCCC[C@H](N)C(=O)O [lysine, reference compound], the “appearance of metallic Cu suspension” value [1] is reported as “metallic Cu suspension will not appear”.
For NCCCC[C@H](N)C(=O)O.O=P(O)(O)O [lysine phosphate, reference compound], the “survival of fish in CuCl2 with chelator” value [2] was “will not die after several weeks”.
For O=C([O-])CC(O)C(=O)[O-].[Na+].[Na+] (stereo not shown) [malate Na, Na malate], the “concentration in culture medium at which microorganisms multiply strongly” value (shortened to “concentration in culture medium”) [3] was 80 ppm.
In the case of O=C(O)CN(CCN(CC(=O)O)CC(=O)O)CC(=O)O.[Mg] [Mg EDTA, Ethylenediaminetetraacetic acid magnesium], the “time after which fish did not die” value ([4]; 800 ppm EDTA Cu / 3000 ppm EDTA Mg / 12000 ppm EDTA Ca) is reported as at least 10 days, the survival of fish ([4]; 2000 ppm triethylenetetramine diethylnenepentaacetate / 3000 ppm Mg EDTA / 2000 ppm Cu EDTA / 12000 ppm Ca EDTA, mixtures at concentrations in label) is reported as “lived for many days” and the “volume that completely dissolves Zn-blood complex suspension” value ([5]; 0.1% solution) is reported as 2 mL. For the same compound, the “amount needed to completely dissolve Zn-blood complex suspension, compared with lysine phosphate/lysine chloride/arginine phosphate/arginine chloride” value [5] was “tens to hundreds of times lower”, the “survival of fish in CuCl2 with chelator” value [2] was “will not die after several weeks” and the “appearance of water after 6 days” value [6, 13] was “clear; also recorded: transparent”. The “fish outcome after 6 days” value [6, 13] was “lived; also recorded: did not die”, the “state of chickens after 12 hours” value [7] was “stopped the lethargic state and they returned to eating normally” and the “appearance of metallic Cu suspension” value [1] was “metallic Cu suspension will not appear”.
In the case of O=C([O-])CC(O)(CC(=O)[O-])C(=O)[O-].[Na+].[Na+].[Na+] [citrate Na, Na citrate], the “concentration in culture medium” value [3] is reported as 80 ppm.
For “tetraethylenepentamine diethylenetriaminepentaacetate”, the “amount needed to completely dissolve Zn-blood complex suspension, compared with lysine phosphate/lysine chloride/arginine phosphate/arginine chloride” value [5] was “tens to hundreds of times lower”.
For Na tannate Na, the “concentration in culture medium” value [3] was 30 ppm.
For [Cl][Cu][Cl] [CuCl2], the “death of fish in CuCl2” value ([4]; 0.4 ppm CuCl2) was “dying after a few hours” and the “appearance of metallic Cu suspension” value [1] was “metallic Cu suspension will appear”.
For N=C(N)NCCC[C@H](N)C(=O)O [arginine, reference compound], the “appearance of metallic Cu suspension” value [1] was “metallic Cu suspension will not appear”.
With “Diethylenetriaminepentaacetic acid magnesium [Mg DTPA]” the “survival of fish in CuCl2 with chelator” value [2] was “will not die after several weeks” and the “appearance of metallic Cu suspension” value [1] was “metallic Cu suspension will not appear”.
For O=C([O-])CN(CCN(CC(=O)[O-])CC(=O)O)CC(=O)O.[Na+].[Na+] [EDTA disodium], the “time to death of fish” value [4] was “less than 24 hours”, the death of fish [4] was “died within a few hours” and the death of fish ([4]; listed as 2 Na EDTA) was “died in a few hours”. For the same compound, the “toxicity / safety to host cells” value [4] was “quite toxic to host cells” and the “toxicity / safety to host cells” value ([4]; listed as disodium EDTA) was “highly toxic to healthy cells”.
For triethylenetetramine gluconate, the “amount needed to completely dissolve Zn-blood complex suspension, compared with lysine phosphate/lysine chloride/arginine phosphate/arginine chloride” value [5] was “tens to hundreds of times lower”.
For triethylenetetramine glutamate, the “recovery of sweet taste” value [8] was “fully recovered”, the “disappearance of ZnCl2-induced symptoms” value [9] was “gradually disappear after a few hours” and the “appearance of metallic Cu suspension” value [1] was “metallic Cu suspension will not appear”.
In the case of [Ca+2].[Cl-].[Cl-] [CaCl2], the “concentration of second metal salt at which metallic Cu suspension will not appear” value [10] is reported as “greater than 0.65%”.
For O=C([O-])CN(CCN(CC(=O)O)CC(=O)O)CC(=O)[O-].[K+].[K+] [EDTA dipotassium], the “toxicity / safety to host cells” value [4] was “toxic to host cells”.
With CC1(C)S[C@@H]2[C@H](NC(=O)[C@H](N)c3ccccc3)C(=O)N2[C@H]1C(=O)O [Ampicillin, reference compound] the “inhibition of proliferation of microorganisms” value ([3]; 20 ppm Bactrim / 10 ppm Ampicillin, first 36 hours) was “slightly inhibited”, the “appearance of water after 6 days” value [6, 13] was “cloudy” and the “fish outcome after 6 days” value [6, 13] was “died and all of fishes died”. For the same compound, the “appearance of water after 6 days” value [6, 14] was “cloudy” and the “fish outcome after 6 days” value [6, 14] was “died and all of fishes died”.
With O=c1oc2ccccc2c(O)c1C1CC(c2ccc(OCc3ccc(C(F)(F)F)cc3)cc2)Cc2ccccc21 (stereo not shown) [flocoumafen, reference compound] the “time to death of fish, toxin alone” value ([4]; 1.25 ppm flocoumafen / 0.3 ppm Bromadiolone / 0.2 ppm Methylamine Avermectin) was 36 h and the “time to death of all mice” value [11] was “about 2 days”.
With triethylenetetramine ascorbate the “disappearance of ZnCl2-induced symptoms” value [9] was “gradually disappear after a few hours”.
With O=C([O-])[C@H](O)[C@@H](O)[C@H](O)[C@H](O)CO.O=C([O-])[C@H](O)[C@@H](O)[C@H](O)[C@H](O)CO.[Zn+2] [Zn gluconate] the “sweet taste sensation after Zn” value ([8]; chewing and sucking 15 mg tablet, 120 seconds) was “completely lost”.
In the case of [Cl][Fe]([Cl])[Cl] [FeCl3], the “concentration of second metal salt at which metallic Cu suspension will not appear” value [10] is reported as “greater than 0.2%” and the “volume that completely dissolves Zn-blood complex suspension” value ([5]; 0.1% solution) is reported as 6 mL.
In the case of EDTA Na, the “time to death of fish” value [4] is reported as at most 24 h.
In the case of [Cl-].[Cl-].[Zn+2] [ZnCl2], the “ZnCl2 concentration above which Zn-blood suspension begins to appear” value ([5]; 0.01% blood) is reported as “above 1.5 ppm”, the “ZnCl2 concentration at which suspension appears abundantly” value ([5]; 0.01% blood) is reported as 2 ppm and the “volume of 0.1% ZnCl2 solution at which Zn-blood complex suspension begins to appear” value ([5]; 100 ml of 0.9% NaCl with 1% blood) is reported as 1.4 mL. For the same compound, the “concentration in culture medium” value [3] was 12 ppm and the “appearance of symptoms (itchy throat/sore throat/cough/runny nose/body aches/slight fever/headache)” value ([9]; 2 ml of 0.4% ZnCl2 solution, 120 seconds) was “appear after a few minutes to a few hours”.
In the case of “pentaethylenehexamine diethylenetriaminepentaacetate”, the “amount needed to completely dissolve Zn-blood complex suspension, compared with lysine phosphate/lysine chloride/arginine phosphate/arginine chloride” value [5] is reported as “tens to hundreds of times lower”.
With CN(C)C1CSSC1 [Nereistoxin] the “time to death of fish, toxin alone” value ([4]; in vivo) was 0.5 h.
For “Diethylenetriaminepentaacetic acid calcium [Ca DTPA]”, the “toxicity / safety to host cells” value [4] was “highly safe” and the “survival of fish in CuCl2 with chelator” value [2] was “will not die after several weeks”.
For O=C([O-])CCC(=O)[O-].[Na+].[Na+] [succinate Na, Na succinate], the “concentration in culture medium” value [3] was 80 ppm.
With O=C([O-])c1cc(O)c(O)c(O)c1.[Na+] [Na gallate] the “concentration in culture medium” value [3] was 5 ppm.
For arginine ascorbate, the “volume that completely dissolves Zn-blood complex suspension” value ([5]; concentration of solution not given) was 0.7 mL.
With N=C(N)NCCC[C@H](N)C(=O)O.O=P(O)(O)O [arginine phosphate] the “volume that completely dissolves Zn-blood complex suspension” value ([5]; 10% solution) was 2 mL, the “units of [Zn ions/other transition metal ions] held by one unit of chelator” value ([5]; synthetic: upper end printed 'more than 200 units') was “one unit (or few units)” and the “survival of fish in CuCl2 with chelator” value [2] was “will not die after several weeks”. For the same compound, the “amount used to sharply reduce the voltage, compared with EDTA Mg/triethylenetetramine glutamate/triethylenetetramine diethylenetriaminepentaacetate” value [12] was “dozens of times greater”.
For [Cl-].[Cl-].[Mg+2] [MgCl2], the “concentration of second metal salt at which metallic Cu suspension will not appear” value [10] was “greater than 0.63%”.
For arginine glutamate, the “recovery of sweet taste” value [8] was “fully recovered”, the “volume that completely dissolves Zn-blood complex suspension” value ([5]; 10% solution) was 1.0 mL and the “amount used to sharply reduce the voltage, compared with EDTA Mg/triethylenetetramine glutamate/triethylenetetramine diethylenetriaminepentaacetate” value [12] was “dozens of times greater”.
In the case of NCCNCCNCCN [triethylenetetramine, Triethylenetetramine, reference compound], the “appearance of metallic Cu suspension” value [1] is reported as “metallic Cu suspension will not appear”.
